This assay relates to P388. Kind of assay: Compound was evaluated for the growth inhibitory activity against p-388 lymphocytic leukemia cells. It counts as functional, cell-based, Mus musculus.

≈ marks a conversion by molar mass, not a printed value.

Regarding `CC[C@@H](C)[C@H]1NC(=O)[C@@H](CC[S+](C)[O-])NC(=O)[C@H]2CCCN2C(=O)[C@H]2CCCN2C(=O)[C@@H](Cc2ccc(O)cc2)NC(=O)[C@H]2CCCN2C(=O)[C@H]2CCCN2C(=O)[C@H]2CCCN2C(=O)CNC1=O` (single isomer, unassigned; isomer 1), for the setting “p388”, the concentration for half-maximal inhibition (IC50) (commonly the point on the concentration scale where inhibition reaches its midpoint) worked out at 6 µg/mL (≈ 6.21 µM). `CC[C@@H](C)[C@H]1NC(=O)[C@@H](CC[S+](C)[O-])NC(=O)[C@H]2CCCN2C(=O)[C@H]2CCCN2C(=O)[C@@H](Cc2ccc(O)cc2)NC(=O)[C@H]2CCCN2C(=O)[C@H]2CCCN2C(=O)[C@H]2CCCN2C(=O)CNC1=O` (single isomer, unassigned; isomer 2): the IC50 (Mus musculus, P388, read-out: IC50) amounted to 3.7 µg/mL (≈ 3.83 µM).

(Values after ChEMBL document CHEMBL1129003, “Cycloleonuripeptides A, B and C, three new proline-rich cyclic nonapeptides from Leonurus heterophyllus” (Bioorg Med Chem Lett, 1996).)
